Literature values, collected in patent publication US6245797A, “Combination therapy for reducing the risks associated with cardio-and-cerebrovascular disease” (Merck & Co., Inc., priority 1998, dated 2001).

Conditions: Scandinavian Simvastatin Survival Study, over the course of the 5 year study

Structure (SMILES): CCC(C)(C)C(=O)O[C@H]1C[C@@H](C)C=C2C=C[C@H](C)[C@H](CC[C@@H]3C[C@@H](O)CC(=O)O3)[C@H]21 [simvastatin]
- treated patients who die of their disease: 5%
